# According to US10105425B2, “Isolated donor MHC-derived peptide and uses thereof” (INSERM (INSTITUT NATIONAL DE LA SANTÉ ET DE LA RECHERCHE …, priority 2014, dated 2018):
# What was measured:
# [1] = test system: CD8^+CD40Ig Tregs; test: MLR coculture: CD25 activation of CD8+CD40Ig Tregs with syngeneic pDCs and allogeneic peptides; format: cell-based, rat; settings: for upregulation of CD25 expression, fold vs. no peptide: 6 days culture, matured syngeneic pDCs, 120 μg/ml peptide
# Description: (§1) For MLR coculture assays, pDCs from LEW.1A naive rats (1.25×10^4 cells), syngeneic CD8^+CD40Ig Tregs (5×10^4 cells) and 120 μg/ml of allogeneic peptides were plated in triplicate in 200 μl of complete RPMI-1640 medium in round-bottom 96 wells plates for 6 days at 37° C., 5% CO2. pDCs were matured with 0.5 μM of CpG ODN 1826.
# (§2) Proliferation of CFSE-labeled naive CD4^+CD25^− T cells and phenotype of CD8^+CD45RC^low Tregs were analyzed by flow cytometry on a FACSCanto II cytometer (BD Biosciences, Mountain View, Calif.) after gating on TCR^+CD4^+ cells or TCR^+CD8^+ cells among live cells (DAPI negative).
# For extracellular staining, cells were stained with the following mAbs: anti-TCRαβ (R73, Alexa Fluor 647-conjugated), anti-CD8α (OX8, PE-Cy7-conjugated, ebiosciences), anti-CD4 (W3.25, PE-Cy7-conjugated), anti-CD45RC (OX22, FITC-conjugated), anti-CD28 (JJ319, biotin-labeled), anti-CD71 (OX26, biotin-labeled), anti-mouse Vb11 (KT11, biotin-labeled, AbD Serotec) anti-CD25 (OX39, biotin-labeled) and anti-MHC-II (OX6, biotin-labeled).
# (§3) All biotinylated mAbs were visualized using Streptavidin-PerCP.Cy5.5 (BD Biosciences). A FACSCanto II cytofluorimeter (BD Biosciences, Mountain View, Calif.) was used to measure fluorescence, and data were analyzed using FlowJo software (Tree Star, Inc. USA, version 7.6.5). Cells were first gated by their morphology and dead cells excluded by selecting DAPI negative viable cells.
# [2] = test system: CD8^+CD40Ig Tregs and pDCs; test: Cytokine ELISA in coculture supernatants after peptide stimulation; format: cell-based, rat; settings: 6 days peptide stimulation with pDCs, supernatant
# Description: as §1
# IFNγ, IL-10 were measured in coculture supernatants using ELISA from BD Biosciences OptEIA, IL-12 and TGFβ using ELISA from Invitrogen and R&D System respectively.
# [3] = test system: CD4^+ and CD8^+ T cells isolated from rejected untreated animals; settings: unmodified LEW.1A recipients, LEW.1W into LEW.1A; cited from earlier work
# [4] = test system: CD4^+CD25^− T cells; test: Direct MLR suppressive assay (CFSE proliferation); format: cell-based, rat
# Description: For direct MLR suppressive assays, sorted CFSE-labeled CD4^+CD25^− T cells from LEW.1A origin (5×10^4 cells) and allogeneic pDCs isolated from donor LEW.1W animals (1.25×10^4 cells) were plated in triplicate for 6 days in a final volume of 200 μl of completed RPMI-1640 medium in round-bottom 96 wells plates with FACS-sorted freshly purified naive CD8^+CD45RC^low Treg cells, peptide-expanded CD8^+CD40Ig Treg cells (5×10^4 cells), Du51 tetramer^+ or ^− CD8^+CD40Ig Tregs. For indirect MLR suppressive assay, splenocytes isolated from donor LEW.1W animals were frozen-thawed to induce apoptosis. Apoptotic cells were then cultured overnight with pDCs isolated from recipient LEW.1A animals (8:1 ratio) at 0.65×10^6 pDCs/mL. Alloantigens-loaded pDCs were finally washed and plated as described before for the direct MLR.
# as §2
# [5] = test system: CD8^+CD45RC^low Tregs; test: Spleen cell populations by flow cytometry after peptide treatment; format: in vivo, rat; settings: long-term surviving Du51-treated recipients
# Description: as §3
# Tetramerization of RT1.A^a/Du51 was performed at room temperature by addition of streptavidin-PE (Jackson ImmunoResearch) or streptavidin-APC (BD Biosciences) at a 4:1-molar ratio, in four equal aliquots added at 15-min intervals. Likewise, the control tetramer RT1.A^a/MTF-E (ILFPSSERLISNR) was conjugated to streptavidin-BV421 (Biolegend) and represented 1.6+/−0.7% of non-specific staining among Du51-specific cells. These three reagents were mixed and added to plated cells at 10 μg/mL for 1 hour at 4° C. Cells were further stained for CD8 and CD45RC and fluorescence was analyzed on a FACSCanto II cytometer (BD Biosciences, Mountain View, Calif.). Cells were first gated by their morphology and dead cells excluded by selecting DAPI negative cells.
# [6] = test system: heart allograft in irradiated LEW.1A recipients; test: Adoptive transfer of splenocytes from Du51-treated long-surviving recipients
# Description: Total splenocytes (1.5·10^8 cells) were adoptively transferred i.v. the day before heart transplantation into naive LEW-1A recipients that had received 4.5 Gy of whole-body irradiation the same day. Recipients received splenocytes from Du51-treated rats (defined as 1st spl-transferred) or from naive rats (naive spl-transferred) or no cells (untreated irradiated).
# [7] = test system: cardiac grafts; test: Morphometric analysis of cardiac grafts (chronic rejection); format: in vivo, rat; settings: long-term surviving Du51-treated recipients
# Description: The upper third of the graft was fixed in paraformaldehyde and embedded in paraffin. Five μm coronal sections were stained with hematoxylin-eosine-safron. Tissues were analyzed by a pathologist (K.R.) blinded to the groups and chronic rejection was evaluated as previously described (63).
# [8] = test system: heart allograft in LEW.1A recipients; test: Cardiac allotransplantation with in vivo peptide treatment; parameters: species or system rat; settings: for allograft survival: five i.v injections of 500 μg peptide, LEW.1W into LEW.1A, n=4
# Description: Allotransplantations of heart were performed between whole MHC incompatible LEW.1W (RT1.A^u as donors) and LEW.1A (RT1.A^a as recipients) male rats as previously described (5). The experiments were approved by the regional ethical committee for animal experimentation.
# 16-mer peptides were dissolved in 0.4% DMSO/PBS before injection. For the first protocol, single doses of peptide (500 μg/injection) were injected i.v at different time points before and after transplantation at day −6, −3, 0 +3 and +7 into grafted LEW.1A recipients. In the second protocol, mini osmotic pumps (ALZET, Cupertino, Calif., USA) were implanted intraperitoneally (i.p) in recipients and delivered continuously either 20.83 or 41.66 μg/hour of 16-mer peptides for 14 days. A first pump was implanted on day −7 before transplantation and was replaced by a second one at day +7, allowing delivery of 14 or 28 mg of peptide per animal for 28 consecutive days. A depleting anti-CD8α mAb (OX8, IgG1, 3 mg/kg) or an anti-MHC class Ia and Ib mAb (OX18, 3 mg/kg) were injected i.p. twice a week from day −7 until rejection. Allografts were monitored daily by palpation and allograft rejection was defined as complete cessation of palpable heart beat.
# [9] = test system: donor-specific alloantibodies; test: Donor specific alloantibody detection by cytofluorimetry; format: in vivo, rat; settings: long-term surviving Du51-treated recipients vs untreated or early rejecting
# Description: Alloantibodies were analyzed by cytofluorimetry as described elsewhere (28). Briefly, after digestion by collagenase D and red blood cell lysis, allogeneic spleen cells were incubated with diluted (1/8) heat-inactivated serum, and then with FITC-conjugated goat anti-rat IgG antibodies (H+L chain specific) (Jackson Laboratories), a mouse anti-rat IgG1 MAb (MCA 194, Serotec), IgG2a (MCA 278, Serotec) or IgG2b (MCA 195, Serotec). […] Cells were analyzed using a FACS Canto II cytofluorimeter (BD Biosciences, Mountain View, Calif.) and the results were expressed as mean channel fluorescence for each serum.
# [10] = after 6 days of peptide stimulation
sequence,measurement,setting,value
NREEYARFDSDVGEYR (Synthetic Dominant peptide Du51),"upregulation of CD25 expression, fold vs. no peptide",[1],2.07±0.18 fold
same,CD28 expression,[1]; [10],upregulation
same,CD71 expression,[1]; [10],upregulation
same,Foxp3 expression,[1]; [10],no modification
same,MHC class II expression,[1]; [10],upregulation
same,IFNγ expression,[2],significant increased expression
same,IL-10 expression,[2],no modification
same,IL-12 production,[2],decreased
same,TGFβ expression,[2],no modification
same,involvement in acute rejection of grafts,[3],not involved in acute rejection
same,ex vivo suppressive activity of peptide-induced CD8+CD45RClow Tregs,[4]; Tregs from Du51-treated recipients,efficiently inhibit effector CD4^+ T cell proliferation
same,proliferation of effector T cells with peptide-stimulated Tregs,"[4]; Tregs stimulated 6 days with peptide, compared to non-activating peptide",significant inhibition
same,"percentage and absolute number of total CD8+ T cells, in particular CD8+CD45RClow Tregs in spleen",[5],trend for an increase
same,tetramer-positive Du51-specific Tregs in spleen,[5],trend for an increase
same,recipients with significant prolongation of allograft survival,"[6]; 150·10^6 splenocytes from recipients treated with 1 mg/day Du51, irradiated secondary recipients",50%
same,anatomopathological status of graft,[6]; first adoptively transferred long term recipients,complete absence of vascular lesions and obstructions
same,"total IgG, IgG1 and IgG2b alloantibodies production",[6]; first adoptively transferred long-term recipients vs untreated,total inhibition
same,signs of chronic rejection in graft,[7],no signs of chronic rejection
same,allograft survival,[8],9.5 days
same,indefinite allograft survival,[8]; i.p. mini-osmotic pumps 20.8 μg peptide per hour for 28 days from day -7,25%
same,"indefinite allograft survival, recipients","[8]; osmotic pump 41.6 μg peptide per hour, LEW.1W donor hearts",80%
same,"rejection of Brown Norway (BN) third party grafts, day after transplantation","[8]; osmotic pump 41.6 μg per hour, BN/LEW.1A",7 days
same,"total IgG, IgG1, IgG2a and IgG2b alloantibodies production",[9],total inhibition
"YLRYDSDVGEYRAVTE [Bu31, sub-dominant peptide from donor MHC class II RT1.B^u]","upregulation of CD25 expression, fold vs. no peptide",[1],1.67±0.09 fold
same,allograft survival,[8],11 days
REEYARFDSDVGEYR (Synthetic 15-mer peptide 51-18),"upregulation of CD25 expression, fold vs. no peptide",[1],2.04±0.3 fold
same,"activation / recognition by CD8+CD40Ig Tregs (CD25), in words","[1]; coculture with matured syngeneic pDCs, 6 days",not significantly different from that induced by Du51
